Test results from patent publication US8722332B2, “Macrocyclic lactone resistance marker for dirofilaria immitis” (priority 2010, dated 2014).
“Also recorded” adds a separate entry of the source. Where two headings read alike, the source gives them in different places. Marks after values point to notes of the source that are not given here.

Experiments:
D. immitis mf = system: D. immitis mf; parameters: species or system Dirofilaria immitis; conditions: in vivo
mf = conditions: in vivo; cited from earlier work
[1] = system: adult heartworms (D. immitis antigen); parameters: species or system Dirofilaria immitis; conditions: in vivo; dihydrochloride
adult heartworms = conditions: dog, in vivo

## milbemycin oxime [MO]
D. immitis mf
  Microfilariae in blood (Knott's test): remained continually microfilaremic; also recorded: mf were still present; also recorded: Knott's test +ve^a; also recorded: Knott's test +ve^c
mf
  dose previously shown to kill mf: 500 µg/kg

## CC[C@H](C)[C@H]1O[C@]2(CC[C@@H]1C)C[C@@H]1C[C@@H](C/C=C(\C)[C@@H](O[C@H]3C[C@H](OC)[C@@H](O[C@H]4C[C@H](OC)[C@@H](O)[C@H](C)O4)[C@H](C)O3)[C@@H](C)/C=C/C=C3\CO[C@@H]4[C@H](O)C(C)=C[C@@H](C(=O)O1)[C@]34O)O2 [IVM, ivermectin]
D. immitis mf; po
  Microfilariae concentration in blood: ≧100^b mf/ml
  Microfilariae in blood (Knott's test): remained continually microfilaremic; also recorded: still microfilaremic; also recorded: Knott's test +ve^a
mf
  dose previously shown to kill mf: 50 µg/kg

## Cl.Cl.NCCS[As](SCCN)c1ccc(Nc2nc(N)nc(N)n2)cc1 [melarsomine, melarsomine dihydrochloride]
[1]
  Antigen test DiroChek result (+ve or −ve): still negative; also recorded: DiroChek −ve^c
  Antigen test PetChek result (+ve or −ve): negative; also recorded: PetChek −ve^a
  Antigen test SNAP result (+ve or −ve): still negative; also recorded: SNAP −ve^a
Adult heartworms
  clinical signs after adulticide: transitory signs consistent with death of adult heartworms
